Values joined by “and” are separate entries in the source; they are usually repeats but may differ in a detail not shown here. Equal entries are not always repeated.
Columns and labels:
[1] = system: stromal vascular (SV) cells from human adipose tissue; assay: Triglyceride (TG) content of differentiating primary cultures of SV cells; assay type: cell-based; conditions: for TG content, dose response: Exp. 3, 1, 3, 10, 30 uM; for More TG content than cultures treated with 10 uM trans-10, cis-12 CLA alone: Exp. 4
Protocol: Abdominal adipose tissue (Exp. 1-5) and thigh adipose tissue (Exp. 5b) were obtained from middle-aged females with body mass indexes <30.0 during liposuction or elective surgery. Subsequently, tissue was minced and enzymatically digested for 45 min in a Krebs-Ringer buffer containing 1 mg/mL collagenase (CLS-1, Worthington Biochemical Corp, Lakewood, N.J.), 15 mg/mL bovine serum albumin (BSA), 5 mM glucose and 100 mM HEPES (pH 7.4). Digestion was carried out at a 5 mL/1 g ratio (digestion solution: tissue mass). The digesta was then filtered through 200- and 60-micron mesh and pelleted at 600×g for 5 min. The SV cells were resuspended in a RBC lysis buffer for 10 min and then filtered and recentrifuged to remove contaminating […]. Cultures of SV cells were grown in proliferation medium containing 90% DME/Ham's F-10 (1:1, v/v), 10% (v/v) fetal bovine serum (FBS), 15 mM HEPES (pH 7.4), 60 U/mL penicillin, 60 U/mL streptomycin, and 25 ug/mL fungizone. Cultures were incubated at 37° C. in a humidified […]:CO2 (90:10%) atmosphere. SV cells were grown to 80% confluency and then cryopreserved in liquid nitrogen in aliquots (2×10^6 cells/mL).
Cryopreserved aliquots were subsequently thawed, seeded in T-150 flasks (e.g., 1 vial per 2 T-150 flasks), and grown in proliferation media until 80% confluent. At this time the cells were removed via trypsinization, seeded (3×10^4/cm^2, except for Exp. 1) in 24-well or 96-well (Exp. 5b) Falcon dishes, and allowed to attach for 24 h in proliferation medium. Following attachment, cultures were grown in differentiation medium for the next 3 d which contained DME/Ham's F-10 (1:1,v/v), 15 mM HEPES (pH 7.4), 33 uM biotin, 17 uM pantothenate, 100 nM human insulin, 1 uM dexamethasone (DEX), 60 U/mL penicillin, 60 U/mL streptomycin, 25 ug/mL fungizone, 0.25 mM isobutylmethylxanthine (IBMX), and TZD (Exp. 1 & 2=BRL 49653; Exp. 3-5=Zen Bio's proprietary reagent). Thereafter, cultures were exposed to adipocyte medium consisting of 90% DME/Ham's F-10 (1:1,v/v), 15 mM HEPES (pH 7.4), 3% FBS (v/v), 33 uM biotin, 17 uM pantothenate, 100 nM human insulin, 1 uM DEX, 60 U/mL penicillin, 60 U/mL streptomycin, and 25 ug/mL fungizone. Adipocyte media was replaced every 3 d. […] After 18 day in culture, the majority of the cells contained visual lipid droplets.
(§1) Experiment 1 was designed to determine optimal culturing conditions during differentiation of primary cultures of SV cells isolated from human adipose tissue. Specifically, the experiment was designed to determine how seeding density and thiazolidinedione (TZD; PPARγ-agonist BRL 49653) concentration influenced TG content (ug/10^6cells). SV cells were seeded at increasing densities (2-, 3-, or 4×10^4/cm^2) in differentiation media containing 0, 1, or 10 uM TZD (BRL 49653) in this 3×3 factorial design. All cultures received the same adipocyte media after 3 d of differentiation. The cultures were harvested on day 11-12 of differentiation and TG content and cell number were measured. Another set of cultures was stained with Oil Red O and counterstained with Mayer's hematoxylin to assess cellular differentiation potential (n=3 per treatment combination).
In Experiment 2 the impact of linoleic acid and the trans-10, cis-12 isomer of CLA on TG accumulation in these cells was examined. SV cells were seeded at a density of 3×10^4/cm^2 and continuously treated with either 10 uM linoleic acid, 100 uM linoleic acid, 10 uM trans-10, cis-12 CLA, or 100 uM trans-10, cis-12 CLA, and grown under our normal differentiation protocol. One set of control cultures contained only vehicle (BSA) and another contained vehicle plus TZD (BRL 49653). TG content and cell number were measured on day 11 of differentiation.
The objective of Experiment 3 was to evaluate the dose response of trans-10, cis-12 CLA, cis-9, trans-11 CLA, and linoleic acid on TG content of the cultures. […]

[2] = system: stromal vascular (SV) cells from human adipose tissue; assay: Percentage of cells differentiated into adipocytes (Oil Red O staining); assay type: cell-based; conditions: Exp. 1, seeding density 4×10^4
Protocol: as §1
The presence of intracellular lipid was visualized by staining cultures with Oil Red O as previously described for human SV cultures (McIntosh et al. (1999) Int. J. Obesity 23:595-602). […] Counterstaining allows for quantifying the percentage of cells that have undergone differentiation (e.g., […]). […]

[3] = system: differentiated human adipocytes; assay: Lipolysis measurement (glycerol release) in day 21 differentiated human adipocytes; conditions: 3 hrs
[4] = system: cultures of thigh adipocytes; assay: Lipolysis assay (glycerol release), thigh adipocytes; assay type: cell-based, human; conditions: Exp. 5b; 1 uM, 5 h, day 18, thigh
Protocol: (§2) Subsequently, tissue was minced and enzymatically digested for 45 min in a Krebs-Ringer buffer containing 1 mg/mL collagenase (CLS-1, Worthington Biochemical Corp, Lakewood, N.J.), 15 mg/mL bovine serum albumin (BSA), 5 mM glucose and 100 mM HEPES (pH 7.4). Digestion was carried out at a 5 mL/1 g ratio (digestion solution: tissue mass). The digesta was then filtered through 200- and 60-micron mesh and pelleted at 600×g for 5 min. The SV cells were resuspended in a RBC lysis buffer for 10 min and then filtered and recentrifuged to remove contaminating […]. […] SV cells were grown to 80% confluency and then cryopreserved in liquid nitrogen in aliquots (2×10^6 cells/mL). In Experiment 5b, basal lipolysis was measured on day 18 of differentiation after the cultures had been treated with fatty acids for 5 h. […] Lipolysis was determined by measuring free and esterified glycerol release into the media following acute (5 h) treatment. […] On day 17 of differentiation, cultures were grown in basal adipocyte media (adipocyte media minus insulin and DEX). […] A set of vehicle controls contained 0.1% DMSO. One hundred microliters of conditioned media was removed from each well, and lipolytic rate determined by quantifying the amount of free glycerol and esterified glycerol in each sample using Sigma's triglyceride kit (GPO-Trinder, Sigma Chemical Co.).

[5] = system: cultures of abdominal adipocytes; assay: Lipolysis assay (glycerol release), abdominal adipocytes; assay type: cell-based, human; conditions: Exp. 5b; 1 uM, 5 h, day 18, abdominal
Protocol: as §2

[6] = system: stromal vascular (SV) cells from human adipose tissue; assay: De novo lipogenesis (14C-glucose incorporation into cellular lipid); assay type: cell-based; conditions: Exp. 5a; 3, 10, 30 uM, day 12
Protocol: Experiments 5a and 5b were designed to determine if the trans-10, cis-12 CLA-mediated reduction in TG content was due to decreased lipogenesis and/or increased lipolysis. In Experiment 5a (lipogenesis), SV cells were seeded at a density of 3×10^4/cm^2 and continuously treated with increasing concentrations (3, 10, or 30 uM) of either linoleic acid, cis-9, tran-11 CLA, or trans-10, cis-12 CLA. A set of control cultures received vehicle (BSA) plus TZD. All cultures received differentiation media (days 1-3), adipocyte media (days 4-9), and low-glucose (˜5 mM) adipocyte media (days 10-12) prior to measuring de novo lipogenesis. On day 12, ^14C-labeled glucose incorporation into the lipid fraction of the cultures was measured for 2 h and, following lipid extraction, the radioactivity in the lipid fraction was determined by scintillation counting. Time course data (not shown) indicated a linear increase in radiolabeled glucose incorporation into lipid over 2 h.
Incorporation of ^14C-glucose into cellular lipid was determined on day 12 of differentiation in cultures chronically treated with fatty acids or vehicle. Following the addition of fatty acids and low glucose (˜5 mM) medium to the cultures on day 12, 1.0 μCi [U-^14C]-glucose ([U-^14C]-D-glucose; SA ˜250 mCi/mmol, ICN, Costa Mesa, Calif.)/mL medium was added to the cultures for 2 h. Our time course study (data not shown) indicated a linear increase in radiolabeled glucose incorporation into lipid over a 2 h period. After 2 h, media containing unincorporated ^14C-glucose was immediately removed and the cultures were washed with 1 mL HBSS to remove unincorporated ^14C-glucose. An additional 1 mL of HBSS was added and, after vigorous tritaration, cells were transferred to glass vials. Five milliliters of a chloroform:methanol (2:1) solution was added to each vial and they were vortexed for 1 min. All samples were then centrifuged for 5 min at 1000×g to further separate the hydrophobic and hydrophilic phases. The lower hydrophobic phase was removed from the tubes and dried under nitrogen at 40° C. Five milliliters of scintillation cocktail (Scinti Verse, Fisher Scientific, Norcross, Ga.) was added to each sample, and the ^14C content was determined by liquid scintillation counting on a Beckman LS 6000 Scintillation Counter (Beckman Instruments, Palo Atlo, Calif.). […] The radioactivity in the lipid fraction from these cultures was subtracted from the total counts. Cell numbers were determined from parallel treatment groups in separate culture dishes at the time of radioisotope addition to the medium. Therefore, mean ^14C-glucose incorporation is expressed as cpm/10^6 cells.

[7] = system: 3T3-L1 preadipocytes; assay: Fatty acid composition of neutral and phospholipid fractions of treated cultures; assay type: cell-based, murine
[8] = system: PPARγ2; assay: PPARγ2 protein expression in 3T3-L1 preadipocytes; assay type: cell-based, murine
[9] = system: aP2; assay: aP2 protein expression in 3T3-L1 preadipocytes; assay type: cell-based, murine; conditions: after 6 d of treatment
[10] = system: 3T3-L1 preadipocytes; assay: Morphological changes (apoptosis-like) in CLA-treated cultures; assay type: cell-based, murine; conditions: LA supplementation of trans-10, cis-12 CLA-treated cultures
[11] = system: 3T3-L1 preadipocytes; assay: TG content of 3T3-L1 preadipocytes; assay type: cell-based, murine; conditions: LA supplementation of CLA-treated cultures
[12] = system: 3T3-L1 preadipocytes; assay: Cell number of treated 3T3-L1 cultures; assay type: cell-based, murine; conditions: data not shown

Compound: CN(CCOc1ccc(CC2SC(=O)NC2=O)cc1)c1ccccn1 (stereo not drawn) [BRL 49653]
- TG content, fold greater than similarly seeded cultures without BRL 49653 ([1]; Exp. 1, 10 uM, seeded at 4×10^4 cells/cm^2): 10 fold
- Percentage of cells that differentiated ([2]; 1 uM TZD): 50%
- Percentage of cells that differentiated ([2]; 10 uM TZD): 47%

Compound: Cn1c(=O)c2c(ncn2C)n(C)c1=O [Caffeine]
- Lipolysis, fold increase over control ([3]; 0.1 % (wt./volume)): 2.4 fold and 4.2 fold

Compound: CC(C)NCC(O)c1ccc(O)c(O)c1 (stereo not drawn) [Isoproterenal]
- Lipolysis, fold increase over control ([3]; 0.00002 % (wt./volume)): 3.4 fold
- Stimulation of lipolysis [4]: ~1.5 fold
- Stimulation of lipolysis [5]: approximately 2.5 fold

Compound: Cn1c(=O)c2[nH]cnc2n(C)c1=O [Theophylline]
- Lipolysis, fold increase over control ([3]; 0.01 % (wt./volume)): 0.8 fold
- Lipolysis, fold increase over control ([3]; 0.05 % (wt./volume)): 1.9 fold
- Lipolysis, fold increase over control ([3]; 0.1 % (wt./volume)): 3.1 fold

Compound: CCCCCC/C=C/C=C\CCCCCCCC(=O)O [cis-9, trans-11 CLA]
- Incorporation of 14C-glucose into cellular lipid per 10^6 cells, dose response [6]: neither linoleic acid nor trans-9, cis-11 CLA influenced de novo lipogenesis
- Abundance in lipid fractions relative to trans-10, cis-12 isomer [7]: 1-2 fold
- Incorporation into cellular lipid fractions ([7]; neutral and phospholipid fractions): incorporated into the neutral and phospholipid fractions
- TG content, dose response ([1]; day 11): increased in a dose dependent fashion

Compound: CCCCC/C=C\C/C=C\CCCCCCCC(=O)O [linoleic acid, 9 cis, 12 cis-octadecadienoic acid]
- Incorporation of 14C-glucose into cellular lipid per 10^6 cells, dose response [6]: neither linoleic acid nor trans-9, cis-11 CLA influenced de novo lipogenesis
- PPARγ2 protein levels, concurrent LA and trans-10, cis-12 CLA vs CLA alone ([8]; 6 d): increased PPARγ2 protein levels
- PPARγ2 protein expression ([8]; after 6 d of treatment): decreased
- PPARγ2 protein expression compared to BSA controls ([8]; day 2 of differentiation): reduced PPARγ2 protein expression
- TG content vs other treatments / TZD treated vehicle controls ([1]; Exp. 2, 100 uM, continuous treatment, day 11): highest TG content
- TG content, dose response ([1]; day 11): increased in a dose dependent fashion
- More TG content than cultures treated with 10 uM trans-10, cis-12 CLA alone ([1]; 10 uM linoleic acid added to 10 uM trans-10, cis-12 CLA): 26%
- More TG content than cultures treated with 10 uM trans-10, cis-12 CLA alone ([1]; 30 uM linoleic acid added to 10 uM trans-10, cis-12 CLA): 55%
- More TG content than cultures treated with 10 uM trans-10, cis-12 CLA alone ([1]; 100 uM linoleic acid added to 10 uM trans-10, cis-12 CLA): 64%
- aP2 protein expression [9]: decreased
- CLA-induced morphological changes [10]: inhibited the CLA-induced morphological changes in a dose-dependent manner
- TG content, concurrent linoleic acid with trans-10, cis-12 CLA [11]: able to prevent the TG-lowering effects of trans-10, cis-12 CLA
- Cell number [12]: increased cell number
